According to article PMC11204507, “Mechanistic Insights into the Neurotoxicity of 2,5-Dimethoxyphenethylamines (2C) and Corresponding N-(2-methoxybenzyl)phenethylamine (NBOMe) Drugs” (Journal of Xenobiotics, 2024):

What was measured:
Assay type in all cases: cell-based, human
[1] = tested on: differentiated SH-SY5Y cells; assay: Neutral red (NR) uptake cytotoxicity assay; details: for EC50: Homo sapiens; for EC20 (concentration inducing 20% of cytotoxicity) / EC80 (concentration inducing 80% of cytotoxicity): NR uptake; for Bottom (baseline, % control) / Top (maximal cell death, % control): fitted NR curve, SH-SY5Y cells
Protocol: (§1) The cells were seeded at a density of 25,000 cells/cm^2. To achieve a more mature neuron-like phenotype, SH-SY5Y cells were initially cultured in a complete medium supplemented with RA (10 µM). Subsequently, 3 days post-seeding, TPA (80 nM) was added to each well, and the cells were maintained for another 3 days until use, thus achieving a dopaminergic phenotype. In all the experiments, the cells were used between passages 22 and 28.
(§2) The differentiated SH-SY5Y cells (25,000 cells/cm^2) and primary rat cortical cultures (150,000 cells/cm^2) were seeded onto 96-well plates as previously described.
(§3) Accordingly, 6 days after seeding (differentiated SH-SY5Y cells) or at 8 DIV (primary cultures), the cells were exposed, for 24 h (37 °C, 5% CO2), to different concentrations of the drugs (0–1000 µM). Thus, the tested concentrations ranged from 0 to 1000 µM for 2C-T-2 and 2C-T-4; 0 to 500 µM for 2C-T-7; 0 to 250 µM for 25T2-NBOMe, and 0 to 100 µM for 25T4-NBOMe and 25T7-NBOMe.
The NR uptake assay is based on the detection of viable cells through the incorporation of the NR dye by the cell’s lysosomes. In brief, after 24 h of exposure to the tested drugs, the differentiated SH-SY5Y cells and primary rat cortical cultures were incubated with NR (50 µg/mL in complete medium) for 90 or 210 min, respectively, at 37 °C, in a 5% CO2-95% air atmosphere. To extract the absorbed dye, an acidified ethanol solution was used, and the absorbance was then measured at 540 nm in a multi-well plate reader (PowerWaveX, BioTek Instruments, Winooski, VT, USA). The cytotoxicity was estimated by the percentage of NR uptake relative to the control cells, and a minimum of 4 independent experiments were conducted in triplicate.

[2] = tested on: differentiated SH-SY5Y cells; assay: MTT reduction cytotoxicity assay; details: for EC50: Homo sapiens, differentiated SH-SY5Y cells, 24 h of exposure, mean (95% CI); for Bottom (baseline, % control) / Top (maximal cell death, % control): fitted MTT curve, SH-SY5Y cells, 24 h
Protocol: as §1, §2, §3
The MTT reduction assay is based on the capacity of metabolically active cells to reduce the water-soluble yellow tetrazolium dye (MTT) into water-insoluble formazan crystals. In brief, after 24 h of exposure to the tested drugs, the differentiated SH-SY5Y cells were incubated with MTT (0.5 mg/mL in complete medium) for 90 min, at 37 °C, in a 5% CO2-95% air atmosphere. To solubilize the formed formazan crystals, an organic solvent (DMSO) was used, and the absorbance was then measured at 550 nm in a multi-well plate reader (PowerWaveX, BioTek Instruments, Winooski, VT, USA). The cytotoxicity was estimated by the percentage of MTT reduction relative to the control cells, and a minimum of 4 independent experiments were conducted in triplicate.

[3] = tested on: differentiated SH-SY5Y cells; assay: Mitochondrial membrane potential, JC-1 dye; details: control 100.0%
Text: Mitochondrial membrane potential (ΔΨm) is a valuable parameter that reflects the energy status and functional integrity of cells, and the JC-1 dye is widely used as an indicator of ΔΨm. In healthy cells with high ΔΨm, JC-1 forms J-aggregates that emit red fluorescence. In apoptotic or unhealthy cells with low ΔΨm, JC-1 remains in its monomeric form and emits green fluorescence. The ratio of red to green fluorescence intensity is proportional to the degree of polarization of the mitochondrial membrane (a higher ratio indicates a more polarized membrane).
Thus, the SH-SY5Y cells were seeded onto 24-well plates (25,000 cells/cm^2) following the previously described seeding and differentiation protocol. On the day of the experiment, the cells were exposed to different concentrations of the tested drugs (EC20 and EC50) for 24 h (37 °C, 5% CO2). CCCP (100 µM, 2 h) was used as a positive control for mitochondrial membrane depolarization. At the end of the incubation period, the medium was removed, and the cells were incubated, for 30 min, with 10 µM JC-1 under light protection (37 °C, 5% CO2). Subsequently, the plates were centrifuged (5 min, 300× g, room temperature), the supernatants were rejected, and the cells were washed 2 times with warm HBSS with calcium and magnesium. Fluorescence was recorded at the wavelengths of 485 nm excitation and 535 nm emission for JC-1 monomers and 535 nm excitation and 595 nm emission wavelengths for J-aggregates in a multi-well plate reader (PowerWaveX, BioTek Instruments, Winooski, VT, USA). The results are presented as the percentage of JC-1 red/green fluorescence ratio relative to the control cells, and a minimum of 5 independent experiments were conducted in triplicate.

[4] = bound stated for both SH-SY5Y cells and primary rat cortical cultures, 24 h, read-out: EC50 values, NR uptake assay, both cellular models
[5] = differentiated SH-SY5Y cells, 24 h of exposure, mean (95% CI), read-out: NR EC50 Values
[6] = differentiated SH-SY5Y cells, 24 h, mean (95% CI)

**Q.** For `CCSc1cc(OC)c(CCN)cc1OC.Cl` [2C-T-2, 2-(4-(ethylthio)-2,5-dimethoxyphenyl)ethan-1-aminium chloride], which EC50 [1, 4] is on record?
**A.** > 215 µM

**Q.** And the EC50 [1, 5]?
**A.** 246 µM

**Q.** And the “EC20 (concentration inducing 20% of cytotoxicity)” value [1, 6]?
**A.** 123.2 (107.1 to 138.8) μM

**Q.** And the “EC80 (concentration inducing 80% of cytotoxicity)” value [1, 6]?
**A.** 491.0 (413.7 to 514.4) μM

**Q.** What about the “Bottom (baseline, % control)” value ([1]; 24 h) of the same compound?
**A.** 4.054 % control

**Q.** And the “Top (maximal cell death, % control)” value ([1]; 24 h)?
**A.** 100.0 % control

**Q.** What about the EC50 [2] of the same compound?
**A.** 306 µM

**Q.** What about the “Bottom (baseline, % control)” value [2] of the same compound?
**A.** 4.516 % control

**Q.** And the “Top (maximal cell death, % control)” value [2]?
**A.** 97.13 % control

**Q.** What about the “mitochondrial membrane polarization (JC-1 red/green ratio), % of the control cells” value ([3]; drug at its EC20, 24 h) of the same compound?
**A.** 58.4%

**Q.** And the “mitochondrial membrane polarization (JC-1 red/green ratio), % of the control cells” value ([3]; drug at its EC50, 24 h)?
**A.** 55.2%

**Q.** `COc1cc(SC(C)C)c(OC)cc1CCN.Cl` [2C-T-4, 2-(4-(isopropylthio)-2,5-dimethoxyphenyl)ethan-1-aminium chloride] was tested. Which EC50 [1, 5] did it give?
**A.** 154 µM

**Q.** What about the “EC20 (concentration inducing 20% of cytotoxicity)” value [1, 6] of the same compound?
**A.** 81.5 (79.9 to 92.1) μM

**Q.** What about the “EC80 (concentration inducing 80% of cytotoxicity)” value [1, 6] of the same compound?
**A.** 291.4 (255.9 to 342.3) μM

**Q.** What about the “Bottom (baseline, % control)” value ([1]; 24 h) of the same compound?
**A.** 5.069 % control

**Q.** What about the “Top (maximal cell death, % control)” value ([1]; 24 h) of the same compound?
**A.** 96.98 % control

**Q.** What about the EC50 [2] of the same compound?
**A.** 191 µM

**Q.** What about the “Bottom (baseline, % control)” value [2] of the same compound?
**A.** 4.106 % control

**Q.** And the “Top (maximal cell death, % control)” value [2]?
**A.** 99.28 % control

**Q.** What about the “mitochondrial membrane polarization (JC-1 red/green ratio), % of the control cells” value ([3]; drug at its EC20, 24 h) of the same compound?
**A.** 58.3%

**Q.** What about the “mitochondrial membrane polarization (JC-1 red/green ratio), % of the control cells” value ([3]; drug at its EC50, 24 h) of the same compound?
**A.** 56.1%

**Q.** What does the source list for `CCCSc1cc(OC)c(CCN)cc1OC.Cl` [2C-T-7, 2-(2,5-dimethoxy-4-(propylthio)phenyl)ethan-1-aminium chloride]?
**A.** EC50 [1, 4]: < 75 µM; EC50 [1, 5]: 74.5 µM; EC20 (concentration inducing 20% of cytotoxicity) [1, 6]: 39.5 (34.4 to 44.4) μM; EC80 (concentration inducing 80% of cytotoxicity) [1, 6]: 140.5 (125.4 to 161.2) μM; Bottom (baseline, % control) ([1]; 24 h): 6.754 % control; Top (maximal cell death, % control) ([1]; 24 h): 97.99 % control; EC50 [2]: 92.3 µM; Bottom (baseline, % control) [2]: 5.625 % control; Top (maximal cell death, % control) [2]: 100.0 % control; mitochondrial membrane polarization (JC-1 red/green ratio), % of the control cells ([3]; drug at its EC20, 24 h): 50.8%; mitochondrial membrane polarization (JC-1 red/green ratio), % of the control cells ([3]; drug at its EC50, 24 h): 50.0%

**Q.** For `CCSc1cc(OC)c(CCNCc2ccccc2OC)cc1OC.Cl` [25T2-NBOMe, 2-(4-(ethylthio)-2,5-dimethoxyphenyl)-N-(2-methoxybenzyl)ethan-1-aminium chloride], which EC50 [1, 4] is on record?
**A.** > 25 µM

**Q.** And the EC50 [1, 5]?
**A.** 37.4 µM

**Q.** What about the “Bottom (baseline, % control)” value ([1]; 24 h) of the same compound?
**A.** 1.962 % control

**Q.** What about the “Top (maximal cell death, % control)” value ([1]; 24 h) of the same compound?
**A.** 98.41 % control

**Q.** And the EC50 [2]?
**A.** 46.8 µM

**Q.** And the “Bottom (baseline, % control)” value [2]?
**A.** 3.123 % control

**Q.** And the “Top (maximal cell death, % control)” value [2]?
**A.** 95.97 % control

**Q.** What about the “mitochondrial membrane polarization (JC-1 red/green ratio), % of the control cells” value ([3]; drug at its EC20, 24 h) of the same compound?
**A.** 78.7%

**Q.** And the “mitochondrial membrane polarization (JC-1 red/green ratio), % of the control cells” value ([3]; drug at its EC50, 24 h)?
**A.** 74.3%

**Q.** How did the EC50 [1, 5] turn out when `COc1cc(SC(C)C)c(OC)cc1CCNCc1ccccc1OC.Cl` [25T4-NBOMe, 2-(4-(isopropylthio)-2,5-dimethoxyphenyl)-N-(2-methoxybenzyl)ethan-1-aminium chloride] was run?
**A.** 35.7 µM

**Q.** What about the “Top (maximal cell death, % control)” value ([1]; 24 h) of the same compound?
**A.** 100.0 % control

**Q.** What about the EC50 [2] of the same compound?
**A.** 36 µM

**Q.** What about the “Bottom (baseline, % control)” value [2] of the same compound?
**A.** 1.753 % control

**Q.** What about the “Top (maximal cell death, % control)” value [2] of the same compound?
**A.** 100.0 % control

**Q.** And the “mitochondrial membrane polarization (JC-1 red/green ratio), % of the control cells” value ([3]; drug at its EC20, 24 h)?
**A.** 83.5%

**Q.** And the “mitochondrial membrane polarization (JC-1 red/green ratio), % of the control cells” value ([3]; drug at its EC50, 24 h)?
**A.** 70.5%

**Q.** How did the EC50 [1, 4] turn out when `CCCSc1cc(OC)c(CCNCc2ccccc2OC)cc1OC.Cl` [25T7-NBOMe, 2-(2,5-dimethoxy-4-(propylthio)phenyl)-N-(2-methoxybenzyl)ethan-1-aminium chloride] was run?
**A.** < 22 µM

**Q.** What about the EC50 [1, 5] of the same compound?
**A.** 21.8 µM

**Q.** And the “Bottom (baseline, % control)” value ([1]; 24 h)?
**A.** 8.660 % control

**Q.** And the “Top (maximal cell death, % control)” value ([1]; 24 h)?
**A.** 94.74 % control

**Q.** And the EC50 [2]?
**A.** 23.3 µM

**Q.** And the “Bottom (baseline, % control)” value [2]?
**A.** 2.444 % control

**Q.** What about the “Top (maximal cell death, % control)” value [2] of the same compound?
**A.** 96.91 % control

**Q.** And the “mitochondrial membrane polarization (JC-1 red/green ratio), % of the control cells” value ([3]; drug at its EC20, 24 h)?
**A.** 90.8%

**Q.** What about the “mitochondrial membrane polarization (JC-1 red/green ratio), % of the control cells” value ([3]; drug at its EC50, 24 h) of the same compound?
**A.** 76.8%
